Where “and” joins values, the source holds several entries; their conditions need not be identical. Equal values may be shown once. Ends that are not written are not given here.

Data on 21 molecules can be found in patent US10260089B2, “Compositions and methods for recognition of RNA using triple helical peptide nucleic acids” (The Research Foundation for the State University of New York, priority 2012, dated 2019).

For data set [1] the following is noted: cited from earlier work.
Data set [2] deals with ribosomal A-site model RNA hairpin HRP5. Nature of the data set: ITC binding to human ribosomal A-site model RNA hairpin HRP5 (Example 3). The settings on record: sodium acetate buffer (pH 5.5).
Data set [3] deals with ribosomal A-site model RNA hairpin HRP6. Briefly: ITC binding to bacterial ribosomal A-site model RNA hairpin HRP6 (Example 3). The settings on record: sodium acetate buffer (pH 5.5). Further details: species or system Mycobacterium tuberculosis.
The test system of data set [4] is RNA hairpin HRP2 (A-U). Briefly: ITC binding of PNA and GPNA to RNA hairpin HRP2 (Example 3). To be noted: for -ΔG / -ΔH / -ΔS: acetate pH 5.5. The procedure:
(§1) Isothermal Titration calorimetry. In a typical ITC experiment, an RNA hairpin solution (0.95 mL, […]) in acetate buffer [100 mM sodium acetate and 1.0 mM EDTA (pH 5.5)] was titrated with a PNA solution (50×5 μL, […]) using a Nano ITC G2 (TA Instruments) calorimeter. For full experimental details and data, see the Supporting Information. The titration data were analyzed using NanoAnalyze (TA Instruments) using an independent model to obtain the fitting graph and thermodynamic binding data (Table 7).
To gain more insight into different binding modes, guanidine-modified variants of hexamer CTCTTC (PNA4) were prepared and studied their binding to HRP2. […] While there was very little dependence on the number of modifications in the D series (entries 7-9), in the L series (entries 10-12) the affinity appeared to decrease somewhat with an increasing number of guanidine modifications.

The subject of data set [5] is RNA hairpin HRP1 (G-C). Briefly: ITC binding of PNA and GPNA to RNA hairpin HRP1 (Example 3). To be noted: for Ka: 100 mM sodium acetate and 1.0 mM EDTA (pH 5.5); for -ΔG / -ΔH / -ΔS: acetate pH 5.5. The protocol:
as §1
The guanidine-modified PNA oligomers [GPNA (FIG. 10)] were made using the standard Fmoc synthesis protocols on the Expedite 8909 synthesizer and purified by reverse-phase high-performance liquid chromatography. […] To allow direct comparison, the same GPNA sequences were prepared (FIG. 10), like the PNA used in previous study of triple-helix formation with double-helical RNA. The binding of GPNA to RNA hairpin (HRP1) was studied using isothermal titration calorimetry [ITC (FIG. 11)]. […] Formation of the complex was further confirmed using circular dichroism (CD) spectroscopy. […] Addition of 4.5 equiv (conditions mimicking the end point of ITC titration) of D-GPNA1 and L-GPNA1 to HRP1 induced a decrease in the magnitude of the CD signal at 240-250 nm, which was clearly visible in the difference spectra. However, a significant increase around 280 nm was not observed. […] Overall, the CD spectra confirmed the formation of GPNA-RNA complexes.

Another data set concerns RNA hairpin HRP3 (C-G). Briefly: ITC binding of PNA and GPNA to RNA hairpin HRP3 (Example 3). To be noted: sodium acetate buffer (pH 5.5). The procedure:
as §1
(§2) Next the sequence selectivity of binding of GPNA1 to all four RNA hairpins having a variable central base pair [HRP1-HRP4 (FIGS. 6 and 10)] was checked.

In the next data set the test system is RNA hairpin HRP4 (U-A). Briefly: ITC binding of PNA and GPNA to RNA hairpin HRP4 (Example 3). To be noted: sodium acetate buffer (pH 5.5). The protocol: as §1, §2
For data set [6], the system named is RNA hairpin HRP1 (G-C). Nature of the data set: ITC binding of PNA and GPNA to RNA hairpin HRP1 (Example 3). To be noted: 37° C., 2 mM MgCl2, 90 mM KCl, 10 mM NaCl, 50 mM potassium phosphate (pH 7.4).
For another data set, the system named is DNA version of HRP1. Nature of the data set: ITC binding of GPNA to a DNA version of HRP1 (Example 3). The settings on record: acetate pH 5.5. The procedure: as §1
Binding of D-GPNA1 to the HRP1 hairpin, consistent with, made of deoxynucleotides (DNA version of HRP1) was weaker by ˜1 order of magnitude (cf., entries 2 and 4). In contrast, the affinity of L-GPNA1 for either the RNA or DNA hairpin was practically the same (cf., entries 3 and 5). Under physiologically relevant conditions [37° C., in 2 mM MgCl2, 90 mM KCl, 10 mM NaCl, and 50 mM potassium phosphate (pH 7.4)], no binding of D-GPNA1 to HRP1 was observed. The sequence of PNA3 was symmetric and thus provided optimal binding for formation of both a parallel triple helix and an antiparallel duplex, as required for triplex invasion (FIGS. 12A-12C).

The subject of data set [7] is RNA hairpin HRP2 (A-U). Briefly: ITC binding of PNA and GPNA to RNA hairpin HRP2 (Example 3). The settings on record: experiment of entry 13 repeated in acetate buffer at pH 7.3.
[8] abbreviates: 100 mM sodium acetate and 1.0 mM EDTA (pH 5.5).

The pKa is the negative logarithm of the acid dissociation constant. As for `Nc1cc[nH]c(=O)n1` [cytosine], the pKa in data set [1] is listed as about 4.5.

On to “H-CCCTPCTT (cysteine pairing not given here) [PNA13]”, for which the “Average association constants Ka, H. Sapiens (HRP5)” value in data set [2] was “NB[b] (No binding; Ka < 10^3 M^−1.)”. Also, the “Average association constants Ka, M. tuberculosis (HRP6)” value in data set [3] worked out at 1.5e+06 M⁻¹.

As for NH2-CCCTGCTT [PNA10], in data set [2], the “Average association constants Ka, H. Sapiens (HRP5)” value worked out at 400000 M⁻¹. Besides, in [3], the “Average association constants Ka, M. tuberculosis (HRP6)” value came to 1.2e+06 M⁻¹.

Turning to NH2-CCCTL-ArgGCTL-ArgT [GPNA10], the “Average association constants Ka, H. Sapiens (HRP5)” value in data set [2] was 2.8e+06 M⁻¹. For the same molecule, the “Average association constants Ka, M. tuberculosis (HRP6)” value in data set [3] came out at 500000 M⁻¹.

As for NH2-CCCTPexCTT [PNA14], the “Average association constants Ka, H. Sapiens (HRP5)” value in data set [2] is “NB[b] (No binding; Ka < 10^3 M^−1.)”. In data set [3], the “Average association constants Ka, M. tuberculosis (HRP6)” value was 2e+06 M⁻¹.

Take NH2-CCTGCTT [PNA11]: the “Average association constants Ka, H. Sapiens (HRP5)” value in [2] was 40000 M⁻¹. Also, in data set [3], the “Average association constants Ka, M. tuberculosis (HRP6)” value is 200000 M⁻¹.

For NH2-CTCTD-ArgTC [D-GPNA2], the Ka with RNA hairpin HRP2 (A-U) [4] (setting [8]) turned out to be 500000 M⁻¹. In the data set with RNA hairpin HRP2 (A-U) [4], the “-ΔG” value amounted to 7.8 kcal/mol, the “-ΔH” value is given as 70.0 kcal/mol and the “-ΔS” value was 209 eu.

Molecule NH2-CTCTL-ArgTC [L-GPNA2] returned a Ka with RNA hairpin HRP2 (A-U) [4] (setting [8]) of 1.8e+06 M⁻¹. In addition, in the data set with RNA hairpin HRP2 (A-U) [4], the “-ΔG” value is on record as 8.5 kcal/mol, the “-ΔH” value is given as 39.6 kcal/mol and the “-ΔS” value is given as 104 eu.

Turning to NH2-CTD-ArgCCTD-ArgC [D-GPNA1], in the data set on RNA hairpin HRP1 (G-C) [5], the Ka was 4.6 ± 1.6 ×10^6 M^−1 and 4.6 ×10^6 M^−1; the “-ΔG” value is given as 9.1 ± 0.2 kcal/mol; the “-ΔH” value is reported as 27.3 ± 2.5 kcal/mol; the “-ΔS” value turned out to be 61 ± 9 eu. Further, in the data set with RNA hairpin HRP3 (C-G), the “Average association constants Ka, HRP3 (C-G)” value was determined as 700000 M⁻¹. In addition, in the data set on RNA hairpin HRP4 (U-A), the “Average association constants Ka, HRP4 (U-A)” value is 1.3e+06 M⁻¹. Moreover, the Ka with RNA hairpin HRP2 (A-U) [4] (setting [8]) is 300000 M⁻¹. Besides, in the data set with RNA hairpin HRP1 (G-C) [6], the “binding to HRP1 under physiologically relevant conditions” value is on record as “no binding”. Further, in the data set with DNA version of HRP1, the “-ΔG” value came out at 7.7 kcal/mol, the “-ΔH” value was 29.1 kcal/mol, the “-ΔS” value is listed as 72 eu and the Ka is 400000 M⁻¹.

For the molecule NH2-CTD-ArgCTD-ArgTD-ArgC [D-GPNA4], in the data set on RNA hairpin HRP2 (A-U) [4] (setting [8]), the Ka turned out to be 600000 M⁻¹. Besides, in the data set with RNA hairpin HRP2 (A-U) [4], the “-ΔG” value is 7.9 kcal/mol, the “-ΔH” value is given as 22.9 kcal/mol and the “-ΔS” value worked out at 50 eu.

In the data set with RNA hairpin HRP2 (A-U) [4] (setting [8]), NH2-CTD-ArgCTTD-ArgC [D-GPNA3] registered a Ka of 500000 M⁻¹. Also, in the data set on RNA hairpin HRP2 (A-U) [4], the “-ΔG” value is 7.8 kcal/mol, the “-ΔH” value came to 41.8 kcal/mol and the “-ΔS” value was 114 eu.

In the data set on RNA hairpin HRP2 (A-U) [4] (setting [8]), NH2-CTD-ArgTCTD-ArgC [D-GPNA6] had a Ka of 5e+06 M⁻¹. Further, in the data set with RNA hairpin HRP2 (A-U) [4], the “-ΔG” value is 9.1 kcal/mol, the “-ΔH” value is given as 13.4 kcal/mol and the “-ΔS” value is given as 14 eu.

Turning to NH2-CTD-ArgTD-ArgCTD-ArgC [D-GPNA7], the Ka in the data set on RNA hairpin HRP2 (A-U) [4] (setting [8]) is 0.4 ± 0.01 ×10^6 M^−1. In the data set on RNA hairpin HRP2 (A-U) [4], the “-ΔG” value is 7.6 ± 0.0 kcal/mol, the “-ΔH” value is 25.8 ± 3.7 kcal/mol and the “-ΔS” value amounted to 61 ± 13 eu.

Take NH2-CTGCTT [PNA12]: in [2], the “Average association constants Ka, H. Sapiens (HRP5)” value was found to be 60000 M⁻¹. Moreover, the “Average association constants Ka, M. tuberculosis (HRP6)” value in data set [3] was found to be 200000 M⁻¹.

For NH2-CTL-ArgCCTL-ArgC [L-GPNA1], in the data set with RNA hairpin HRP1 (G-C) [5], the Ka is 2.2 ± 1.6 ×10^6 M^−1 and 2.2 ×10^6 M^−1; the “-ΔG” value worked out at 8.6 ± 0.5 kcal/mol; the “-ΔH” value is reported as 24.2 ± 9.6 kcal/mol; the “-ΔS” value is given as 53 ± 34 eu. Moreover, the “Average association constants Ka, HRP3 (C-G)” value with RNA hairpin HRP3 (C-G) is 600000 M⁻¹. Besides, in the data set on RNA hairpin HRP4 (U-A), the “Average association constants Ka, HRP4 (U-A)” value was 400000 M⁻¹. In addition, the Ka with RNA hairpin HRP2 (A-U) [4] (setting [8]) was 800000 M⁻¹. Besides, in the data set with DNA version of HRP1, the “-ΔG” value is listed as 8.7 kcal/mol, the “-ΔH” value amounted to 21.0 kcal/mol, the “-ΔS” value amounted to 41 eu and the Ka came to 2.5e+06 M⁻¹.

For the molecule NH2-CTL-ArgCTL-ArgTL-ArgC [L-GPNA4], in the data set with RNA hairpin HRP2 (A-U) [4] (setting [8]), the Ka amounted to 500000 M⁻¹. For the same molecule, in the data set with RNA hairpin HRP2 (A-U) [4], the “-ΔG” value is reported as 7.8 kcal/mol, the “-ΔH” value came to 61.6 kcal/mol and the “-ΔS” value was found to be 181 eu.

Consider NH2-CTL-ArgCTTL-ArgC [L-GPNA3], for which, in the data set with RNA hairpin HRP2 (A-U) [4] (setting [8]), the Ka came out at 800000 M⁻¹. Moreover, in the data set on RNA hairpin HRP2 (A-U) [4], the “-ΔG” value came to 8.0 kcal/mol, the “-ΔH” value is 58.8 kcal/mol and the “-ΔS” value was 170 eu.

In the case of NH2-CTL-ArgGCTT [GPNA12], the “Average association constants Ka, H. Sapiens (HRP5)” value in data set [2] worked out at 800000 M⁻¹. Moreover, in data set [3], the “Average association constants Ka, M. tuberculosis (HRP6)” value turned out to be 400000 M⁻¹.

With NH2-CTL-ArgTL-ArgCTL-ArgC [L-GPNA7], the Ka with RNA hairpin HRP2 (A-U) [4] (setting [8]) is listed as 3.8 ± 0.1 ×10^6 M^−1. Besides, in the data set on RNA hairpin HRP2 (A-U) [4], the “-ΔG” value is recorded as 8.9 ± 0.3 kcal/mol, the “-ΔH” value is 13.0 ± 7.3 kcal/mol and the “-ΔS” value is on record as 14 ± 25 eu.

In the data set with RNA hairpin HRP2 (A-U) [4] (setting [8]), NH2-CTTD-ArgCTC [D-GPNA5] yielded a Ka of 1.05e+07 M⁻¹. Moreover, in the data set with RNA hairpin HRP2 (A-U) [4], the “-ΔG” value was determined as 9.6 kcal/mol, the “-ΔH” value amounted to 19.8 kcal/mol and the “-ΔS” value is given as 34 eu. Moreover, in the data set on RNA hairpin HRP2 (A-U) [4] (pH 5.5, antiparallel GPNA), the “Ka” value is reported as ~10^7. In the data set on RNA hairpin HRP2 (A-U) [7], the “binding to HRP2 in acetate buffer at pH 7.3” value is on record as “no binding”.

Consider NH2CTL-ArgGCTL-ArgT [GPNA13], for which the “Average association constants Ka, H. Sapiens (HRP5)” value in data set [2] turned out to be 8.1e+06 M⁻¹. For the same molecule, the “Average association constants Ka, M. tuberculosis (HRP6)” value in [3] turned out to be 2.9e+06 M⁻¹.
